In patent US20220220128A1, “HETEROCYCLIC COMPOUNDS AS KINASE INHIBITORS, COMPOSITIONS COMPRISING THE HETEROCYCLIC COMPOUND, AND METHODS OF USE THEREOF” (JS Innopharm (Shanghai) Ltd, priority 2019, published 2022):

Legend:
human KDR kinase = molecular target: T1, human KDR kinase (Homo sapiens, UniProt P35968); assay: KDR Kinase Assay (LanthaScreen TR-FRET enzymatic assay); format: biochemical; settings: 1.2 nM KDR, 92 μM ATP
T1 construct: purchased Carna 08-191
In short: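 Recombinant human KDR (1.2 nM) preincubated 15 min at room temperature with compound, then reacted with 3 μM FAM-P22 peptide and 92 μM ATP in 50 mM HEPES pH 7.5 for 1 h at 28° C. EDTA stop, then TR-FRET acceptor/donor ratio read; percent of 1% DMSO control fitted sigmoidally for IC50.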

human RET kinase = molecular target: T2, human RET kinase (Homo sapiens, UniProt P07949); assay: RET Kinase Assay (LanthaScreen TR-FRET enzymatic assay); format: biochemical; settings: 7 nM RET, 23 μM ATP
T2 construct: purchased Carna 08-159
In short: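 Human RET (7 nM) preincubated 15 min with compound in 50 mM HEPES pH 7.5, 0.0015% Brij-35, then reacted with 3 μM FAM-P2 peptide and 23 μM ATP for 1 h at 28° C.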

BAF3-KIF5B-RET cells = molecular target: T3, BAF3-KIF5B-RET cells (Homo sapiens, UniProt P07949); assay: BAF3-KIF5B-RET Cell proliferation assay (CellTiter-Glo, 72 hours); format: cell-based; settings: growth inhibition, read-out: BA/F3-KIF5B-RET Cellular activity
T3 construct: fused on or other part: P33176 (Kinesin-1 heavy chain)
In short: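 Cells seeded at 2,000/well in RPMI-1640 with 10% FBS and left 24 h at 37 °C, then exposed 72 h to nine compound levels (final 1 μM down to 0.00015 μM, 0.1% DMSO). CellTiter-Glo luminescence gave viability versus DMSO wells, from which IC50 was fitted.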

TT cells = assay: TT Cell Proliferation Assay (WST-8, 8 days); format: cell-based; settings: Homo sapiens, TT, 192 h, growth inhibition in TT cells, read-out: TT Cellular Activity
In short: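 TT cells, 6,000/well in RPMI-1640 with 10% FBS, attached 24 h, then exposed to compound at 5 μM down to 0.0005 μM final (0.5% DMSO) for 8 days at 37 °C. WST-8 added for 5 h, absorbance at 450 nm. IC50 calculated from the dilution series.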

T3 sequence (P07949 whole entry, change not shown, the tested form may be a part): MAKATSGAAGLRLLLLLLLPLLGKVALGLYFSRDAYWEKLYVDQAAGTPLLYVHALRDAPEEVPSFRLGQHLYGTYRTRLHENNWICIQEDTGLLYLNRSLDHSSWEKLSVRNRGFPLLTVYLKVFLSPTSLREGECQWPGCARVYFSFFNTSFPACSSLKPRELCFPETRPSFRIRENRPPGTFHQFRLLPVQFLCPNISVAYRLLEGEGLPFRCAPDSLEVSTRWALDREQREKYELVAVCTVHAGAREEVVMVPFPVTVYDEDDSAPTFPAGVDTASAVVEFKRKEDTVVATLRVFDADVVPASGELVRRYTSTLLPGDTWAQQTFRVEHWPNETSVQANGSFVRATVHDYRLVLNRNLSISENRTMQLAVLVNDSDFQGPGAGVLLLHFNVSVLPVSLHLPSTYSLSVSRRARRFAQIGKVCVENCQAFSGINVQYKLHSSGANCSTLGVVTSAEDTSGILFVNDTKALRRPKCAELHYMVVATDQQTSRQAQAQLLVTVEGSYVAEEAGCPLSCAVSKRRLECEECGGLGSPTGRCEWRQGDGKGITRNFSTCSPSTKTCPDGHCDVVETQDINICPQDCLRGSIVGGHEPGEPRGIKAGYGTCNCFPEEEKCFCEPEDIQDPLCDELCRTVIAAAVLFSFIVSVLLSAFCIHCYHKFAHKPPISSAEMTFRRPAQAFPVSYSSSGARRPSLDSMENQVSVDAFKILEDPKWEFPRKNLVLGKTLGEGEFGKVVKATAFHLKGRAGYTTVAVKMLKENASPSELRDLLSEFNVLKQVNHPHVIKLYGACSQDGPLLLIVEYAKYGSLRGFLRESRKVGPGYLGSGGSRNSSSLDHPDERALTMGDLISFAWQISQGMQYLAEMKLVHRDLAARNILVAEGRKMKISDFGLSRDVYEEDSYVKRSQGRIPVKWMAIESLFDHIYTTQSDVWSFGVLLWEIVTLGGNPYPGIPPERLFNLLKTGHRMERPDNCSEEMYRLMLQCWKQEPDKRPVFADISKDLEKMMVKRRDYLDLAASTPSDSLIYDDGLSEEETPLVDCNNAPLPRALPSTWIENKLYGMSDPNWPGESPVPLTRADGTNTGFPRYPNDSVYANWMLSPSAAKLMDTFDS
T2 sequence (P07949 29-1114): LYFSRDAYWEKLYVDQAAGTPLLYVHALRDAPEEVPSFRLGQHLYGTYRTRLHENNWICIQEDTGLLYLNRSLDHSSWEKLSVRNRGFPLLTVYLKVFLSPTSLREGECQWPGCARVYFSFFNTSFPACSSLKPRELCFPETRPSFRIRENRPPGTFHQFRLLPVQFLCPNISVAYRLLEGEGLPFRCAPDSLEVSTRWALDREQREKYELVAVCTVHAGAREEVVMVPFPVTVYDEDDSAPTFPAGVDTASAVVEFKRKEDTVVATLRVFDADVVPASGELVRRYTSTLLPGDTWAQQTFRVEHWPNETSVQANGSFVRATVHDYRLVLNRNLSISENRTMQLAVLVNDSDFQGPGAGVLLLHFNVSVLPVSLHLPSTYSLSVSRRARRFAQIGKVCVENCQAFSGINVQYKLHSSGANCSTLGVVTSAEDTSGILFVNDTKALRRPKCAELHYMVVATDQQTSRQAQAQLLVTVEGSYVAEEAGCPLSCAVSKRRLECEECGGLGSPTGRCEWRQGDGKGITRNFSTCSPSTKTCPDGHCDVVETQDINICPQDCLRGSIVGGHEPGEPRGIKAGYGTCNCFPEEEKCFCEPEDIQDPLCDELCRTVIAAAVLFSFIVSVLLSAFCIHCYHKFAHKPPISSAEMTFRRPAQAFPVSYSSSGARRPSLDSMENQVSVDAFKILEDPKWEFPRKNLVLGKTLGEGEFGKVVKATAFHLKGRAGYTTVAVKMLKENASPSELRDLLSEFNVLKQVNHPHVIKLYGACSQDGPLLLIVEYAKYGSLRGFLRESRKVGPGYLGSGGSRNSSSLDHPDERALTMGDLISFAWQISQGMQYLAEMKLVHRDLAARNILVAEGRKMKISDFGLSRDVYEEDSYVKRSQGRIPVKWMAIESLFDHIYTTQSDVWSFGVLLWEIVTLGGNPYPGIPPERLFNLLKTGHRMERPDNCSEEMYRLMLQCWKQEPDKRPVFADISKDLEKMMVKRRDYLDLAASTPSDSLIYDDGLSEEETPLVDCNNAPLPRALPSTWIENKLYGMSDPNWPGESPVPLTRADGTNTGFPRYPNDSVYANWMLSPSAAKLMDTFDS
T1 sequence (P35968 20-1356): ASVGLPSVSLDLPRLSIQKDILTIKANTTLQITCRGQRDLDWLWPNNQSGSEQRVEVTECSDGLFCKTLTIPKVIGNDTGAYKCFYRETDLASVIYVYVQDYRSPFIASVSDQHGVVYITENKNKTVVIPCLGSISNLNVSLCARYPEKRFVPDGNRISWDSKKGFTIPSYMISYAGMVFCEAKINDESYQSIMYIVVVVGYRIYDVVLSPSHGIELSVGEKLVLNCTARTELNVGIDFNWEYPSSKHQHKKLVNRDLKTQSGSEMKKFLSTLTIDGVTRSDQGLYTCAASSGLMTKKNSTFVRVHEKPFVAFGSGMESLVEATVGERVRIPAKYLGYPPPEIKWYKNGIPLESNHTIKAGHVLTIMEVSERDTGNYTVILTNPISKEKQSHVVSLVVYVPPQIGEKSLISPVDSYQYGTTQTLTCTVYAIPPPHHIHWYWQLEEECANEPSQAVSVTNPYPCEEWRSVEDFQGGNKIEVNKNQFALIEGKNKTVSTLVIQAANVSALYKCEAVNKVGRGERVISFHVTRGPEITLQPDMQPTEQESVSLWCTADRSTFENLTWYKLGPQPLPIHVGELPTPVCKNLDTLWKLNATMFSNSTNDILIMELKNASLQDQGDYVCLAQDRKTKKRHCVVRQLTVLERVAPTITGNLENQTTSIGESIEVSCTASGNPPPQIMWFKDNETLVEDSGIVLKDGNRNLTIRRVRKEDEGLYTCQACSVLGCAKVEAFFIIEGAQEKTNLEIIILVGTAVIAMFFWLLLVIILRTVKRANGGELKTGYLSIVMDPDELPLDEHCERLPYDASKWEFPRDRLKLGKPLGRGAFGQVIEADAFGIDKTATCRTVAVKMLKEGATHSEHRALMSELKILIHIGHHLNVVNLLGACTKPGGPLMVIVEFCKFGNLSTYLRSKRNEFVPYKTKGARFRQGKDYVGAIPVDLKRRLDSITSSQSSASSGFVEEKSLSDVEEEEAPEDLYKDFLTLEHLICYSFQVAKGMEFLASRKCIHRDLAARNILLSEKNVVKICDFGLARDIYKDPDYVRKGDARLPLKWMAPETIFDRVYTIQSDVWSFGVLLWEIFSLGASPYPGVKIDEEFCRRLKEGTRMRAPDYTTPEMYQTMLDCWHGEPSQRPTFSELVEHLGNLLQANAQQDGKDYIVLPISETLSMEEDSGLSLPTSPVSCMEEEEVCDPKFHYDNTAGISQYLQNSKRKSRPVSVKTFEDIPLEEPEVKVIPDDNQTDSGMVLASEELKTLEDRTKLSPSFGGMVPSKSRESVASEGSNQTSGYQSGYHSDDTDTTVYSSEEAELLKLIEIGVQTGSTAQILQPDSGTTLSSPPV

SMILES	IC50 (human KDR kinase) [µM]	IC50 (human RET kinase) [µM]	GI50 (BAF3-KIF5B-RET cells) [µM]	IC50 (TT cells) [µM]
CC(C)(O)COc1cc(-c2ccc(N3C4CC5CC3CC(NC(=O)c3ncccc3F)(C5)C4)nc2)c2c(C#N)cnn2c1 [Example 137, N-((1R,3S,5s,7s)-2-(5-(3-cyano-6-(2-hydroxy-2-methylpropoxy)pyrazolo[1,5-a]pyridin-4-yl)pyridin-2-yl)-2-azaadamantan-5-yl)-3-fluoropicolinamide]	0.05 to 0.1	≤ 0.01	≤ 0.01	≤ 0.01
CC(C)C(=O)NC12CC3CC(C1)N(c1ccc(-c4cc(OCC(C)(C)O)cn5ncc(C#N)c45)cn1)C(C3)C2 [Example 132, N-((1R,3S,5s,7s)-2-(5-(3-cyano-6-(2-hydroxy-2-methylpropoxy)pyrazolo[1,5-a]pyridin-4-yl)pyridin-2-yl)-2-azaadamantan-5-yl)isobutyramide]	> 0.1	≤ 0.01	0.01 to 0.05	≤ 0.01
CC(C)(O)COc1cc(-c2ccc(N3C4CC5CC3CC(C(=O)Nc3ncccc3Cl)(C5)C4)nc2)c2c(C#N)cnn2c1 [Example 98, (1R,3 S,5s,7s)-N-(3-chloropyridin-2-yl)-2-(5-(3-cyano-6-(2-hydroxy-2-methylpropoxy)pyrazolo[1,5-a]pyridin-4-yl)pyridin-2-yl)-2-azaadamantane-5-carboxamide]	0.01 to 0.05	≤ 0.01	≤ 0.01	≤ 0.01
CC(C)C(O)C(=O)NC[C@@H]1[C@H]2CN(c3ccc(-c4cc(-c5cnn(C)c5)cn5ncc(C#N)c45)cn3)C[C@@H]12 (stereo partly drawn) [Example 75, N-(((1R,5S,6s)-3-(5-(3-cyano-6-(1-methyl-1H-pyrazol-4-yl)pyrazolo[1,5-a]pyridin-4-yl)pyridin-2-yl)-3-azabicyclo[3.1.0]hexan-6-yl)methyl)-2-hydroxy-3-methylbutanamide]	0.01 to 0.05	≤ 0.01	≤ 0.01	≤ 0.01
CC(C)(O)COc1cc(-c2ccc(N3C4CC5CC3CC(NC(=O)c3ncccc3Cl)(C5)C4)nc2)c2c(C#N)cnn2c1 [Example 135, 3-chloro-N-((1R,3S,5s,7s)-2-(5-(3-cyano-6-(2-hydroxy-2-methylpropoxy)pyrazolo[1,5-a]pyridin-4-yl)pyridin-2-yl)-2-azaadamantan-5-yl)picolinainide]	0.01 to 0.05	≤ 0.01	≤ 0.01	≤ 0.01
COc1ccc(C(=O)NC23CC4CC(C2)N(c2ccc(-c5cc(OCC(C)(C)O)cn6ncc(C#N)c56)cn2)C(C4)C3)cn1 [Example 138, N-((1R,3S,5s,7s)-2-(5-(3-cyano-6-(2-hydroxy-2-methylpropoxy)pyrazolo[1,5-a]pyridin-4-yl)pyridin-2-yl)-2-azaadamantan-5-yl)-6-methoxynicotinamide]	≤ 0.01	≤ 0.01	0.01 to 0.05	–
CC(C)(O)COc1cc(-c2cnc(N3C[C@@H]4[C@@H](CNC(=O)c5ncccc5Cl)[C@@H]4C3)cn2)c2c(C#N)cnn2c1 [Example 103, 3-chloro-N-(((1R,5S,6s)-3-(5-(3-cyano-6-(2-hydroxy-2-methylpropoxy)pyrazolo[1,5-a]pyridin-4-yl)pyrazin-2-yl)-3-azabicyclo[3.1.0]hexan-6-yl)methyl)picolinamide]	> 0.1	≤ 0.01	0.01 to 0.05	–

Now from value to compound, other results behind:

IC50 (human KDR kinase) [µM]	IC50 (human RET kinase) [µM]	GI50 (BAF3-KIF5B-RET cells) [µM]	SMILES	IC50 (TT cells) [µM]
0.01 to 0.05	≤ 0.01	0.01 to 0.05	Cn1cc(-c2cc(-c3ccc(N4C[C@@H]5[C@H](C4)[C@H]5NC(=O)c4ncccc4Cl)nc3)c3c(C#N)cnn3c2)cn1 [Example 20, 3-chloro-N-((1R,5S,6s)-3-(5-(3-cyano-6-(1-methyl-1H-pyrazol-4-yl)pyrazolo[1,5-a]pyridin-4-yl)pyridin-2-yl)-3-azabicyclo[3.1.0]hexan-6-yl)picolinamide]	0.01 to 0.05
0.05 to 0.1	≤ 0.01	0.05 to 0.1	COc1ccc(CN[C@]2(C)C[C@H]3CN(c4cnc(-c5cc(-c6cnn(C)c6)cn6ncc(C#N)c56)cn4)C[C@H]3C2)cn1 [Example 101, 4-(5-((3aR,5s,6aS)-5-(((6-methoxypyridin-3-yl)methyl)amino)-5-methylhexahydrocyclopenta[c]pyrrol-2(1H)-yl)pyrazin-2-yl)-6-(1-methyl-1H-pyrazol-4-yl)pyrazolo[1,5-a]pyridine-3-carbonitrile]	0.05 to 0.1
0.01 to 0.05	≤ 0.01	≤ 0.01	Cn1cc(-c2cc(-c3cnc(N4C[C@@H]5[C@@H](CNC(=O)c6ncccc6Cl)[C@@H]5C4)cn3)c3c(C#N)cnn3c2)cn1 [Example 153, 3-chloro-N-(((1R,5S,6s)-3-(5-(3-cyano-6-(1-methyl-1H-pyrazol-4-yl)pyrazolo[1,5-a]pyridin-4-yl)pyrazin-2-yl)-3-azabicyclo[3.1.0]hexan-6-yl)methyl)picolinamide]	–
0.01 to 0.05	≤ 0.01	≤ 0.01	CC(C)(O)COc1cc(-c2ccc(N3C[C@@H]4C[C@@](C)(NC(=O)c5c(F)cccc5Cl)C[C@@H]4C3)nc2)c2c(C#N)cnn2c1 [Example 96, 2-chloro-N-((3aR,5s,6aS)-2-(5-(3-cyano-6-(2-hydroxy-2-methylpropoxy)pyrazolo[1,5-a]pyridin-4-yl)pyridin-2-yl)-5-methyloctahydrocyclopenta[c]pyrrol-5-yl)-6-fluorobenzamide]	≤ 0.01
0.01 to 0.05	≤ 0.01	≤ 0.01	Cn1cc(-c2cc(-c3cnc(N4C[C@@H]5C[C@@](C)(NC(=O)c6ncccc6Cl)C[C@@H]5C4)cn3)c3c(C#N)cnn3c2)cn1 [Example 61]	≤ 0.01
≤ 0.01	≤ 0.01	≤ 0.01	Cn1cc(-c2cc(-c3ccc(N4C[C@@H]5C[C@@](C)(NC(=O)c6ncccc6Cl)C[C@@H]5C4)nc3)c3c(C#N)cnn3c2)cn1 [Example 55, 3-chloro-N-((3aR,5s,6aS)-2-(5-(3-cyano-6-(1-methyl-1H-pyrazol-4-yl)pyrazolo[1,5-a]pyridin-4-yl)pyridin-2-yl)-5-methyloctahydro-cyclopenta[c]pyrrol-5-yl)picolinamide]	≤ 0.01
0.05 to 0.1	≤ 0.01	0.01 to 0.05	Cn1cc(-c2cc(-c3cnc(N4C[C@@H]5[C@H](C4)[C@H]5NC(=O)c4ncccc4Cl)cn3)c3c(C#N)cnn3c2)cn1 [Example 102, 3-chloro-N-((1R,5S,6s)-3-(5-(3-cyano-6-(1-methyl-1H-pyrazol-4-yl)pyrazolo[1,5-a]pyridin-4-yl)pyrazin-2-yl)-3-azabicyclo[3.1.0]hexan-6-yl)picolinamide]	–
0.01 to 0.05	≤ 0.01	0.05 to 0.1	COc1ccc(CN[C@]2(C)C[C@H]3CN(c4ccc(-c5cc(-c6cnn(C)c6)cn6ncc(C#N)c56)cn4)C[C@H]3C2)cn1 [Example 152, 4-(6-((3aR,5s,6aS)-5-(((6-methoxypyridin-3-yl)methyl)amino)-5-methylhexahydrocyclopenta[c]pyrrol-2(1H)-yl)pyridin-3-yl)-6-(1-methyl-1H-pyrazol-4-yl)pyrazolo[1,5-a]pyridine-3-carbonitrile]	–
> 0.1	≤ 0.01	0.01 to 0.05	CC(C)(O)COc1cc(-c2cnc(N3C[C@@H]4C[C@@](C)(NC(=O)c5ncccc5Cl)C[C@@H]4C3)cn2)c2c(C#N)cnn2c1 [Example 143, 3-chloro-N-((3aR,5s,6aS)-2-(5-(3-cyano-6-(2-hydroxy-2-methylpropoxy)pyrazolo[1,5-a]pyridin-4-yl)pyrazin-2-yl)-5-methyloctahydrocyclopenta[c]pyrrol-5-yl)picolinamide]	–
